{"source": "ChEMBL document CHEMBL5329177", "about": "“De novo design of a stapled peptide targeting SARS-CoV-2 spike protein receptor-binding domain” (RSC Med Chem, 2023)", "test_system": "Vero C1008", "assay": "Cytotoxicity against African green monkey Vero E6 cells assessed as inhibition of cell growth measured after 48 hrs by MTT assay", "format": "toxicity, cell-based", "settings": "chlorocebus sabaeus, vero c1008, 48 h, dose 0.05-50 µM", "note": "Starred links: 1 amine or outer side, 2 acyl side, 3 side chain; linkers in the order of their positions; H or OH if unused. Positions of bridges follow the written chain, without caps; N, C: chain ends. Non-standard residues stand in square brackets, D forms with d. Residues, ends and D or L forms follow the SMILES beside them. X1 = C[C@@](CC=[*:3])(N[*:1])C(=O)[*:2]", "data": [{"smiles": "CSCC[C@@H]1NC(=O)[C@H](CC(N)=O)NC(=O)[C@@H]2CC(=O)NCCCC[C@H](NC(=O)[C@H](Cc3c[nH]c4ccccc34)NC(=O)[C@@H](NC(=O)[C@H](CCCCN)NC(=O)[C@H](Cc3ccc(O)cc3)NC(=O)[C@H](CC(C)C)NC(=O)[C@H](Cc3c[nH]c4ccccc34)NC(=O)[C@H](CCC(=O)O)NC(=O)[C@@H](NC(=O)CNC(C)=O)[C@@H](C)O)C(C)C)C(=O)N[C@@H](C)C(=O)N[C@@H](Cc3ccccc3)C(=O)N[C@@](C)(C/C=C/C[C@@](C)(C(=O)O)NC1=O)C(=O)N2", "note": "(Ac-GTEWLYKVWKAF[X1]DNM[X1]-OH; lactam 10-14; staple (E) 13-17)", "values": [{"measurement": "Activity", "result": "Dose-Dependent Effect"}]}]}
